{
  "source": "patent US20150071918A1",
  "about": "“PEPTIDES FOR THE TREATMENT OF CANCER” (H. LEE MOFFITT CANCER CENTER AND RESEARCH INSTITUTE, INC., priority 2012, published 2015)",
  "key": {"[1]": {"biological_target": "T1, full length recombinant human CD44 (Homo sapiens, UniProt P16070)", "T1 construct": "purchased Abnova", "T1 sequence (P16070 21-699 isoform P16070-4 limits assumed)": "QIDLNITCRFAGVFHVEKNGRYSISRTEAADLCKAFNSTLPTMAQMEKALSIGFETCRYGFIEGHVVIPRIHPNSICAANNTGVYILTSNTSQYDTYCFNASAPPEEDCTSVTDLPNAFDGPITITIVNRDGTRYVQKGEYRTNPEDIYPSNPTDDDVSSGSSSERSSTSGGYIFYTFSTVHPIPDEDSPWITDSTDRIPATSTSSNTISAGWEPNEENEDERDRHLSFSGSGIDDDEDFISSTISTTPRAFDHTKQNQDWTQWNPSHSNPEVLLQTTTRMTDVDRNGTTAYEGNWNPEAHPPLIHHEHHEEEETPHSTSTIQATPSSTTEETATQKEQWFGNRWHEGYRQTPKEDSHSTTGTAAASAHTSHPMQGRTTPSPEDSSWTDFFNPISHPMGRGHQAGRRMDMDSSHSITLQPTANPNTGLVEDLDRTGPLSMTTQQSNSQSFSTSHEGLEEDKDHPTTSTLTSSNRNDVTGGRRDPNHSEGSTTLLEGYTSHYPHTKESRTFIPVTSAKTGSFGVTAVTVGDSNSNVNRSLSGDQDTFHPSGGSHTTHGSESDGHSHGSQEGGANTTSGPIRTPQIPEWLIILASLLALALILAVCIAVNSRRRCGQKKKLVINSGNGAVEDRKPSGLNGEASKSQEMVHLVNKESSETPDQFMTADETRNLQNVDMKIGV", "experiment": "ELISA based binding assay, biotin-HYD1 on NeutrAvidin coated wells", "conditions": "biotin as control", "from_the_text": "FIG. 41. […] A primary CD44 antibody and HRP conjugated secondary antibody and chemiluminescence detection was used to quantify rCD44 binding to immobilized biotin-HYD1.\nFIG. 51. ELISA based binding assay confirms that biotin-HYD1 binds to full length recombinant human CD44 in a concentration dependent manner. Biotin was bound to NeutrAvidin coated wells to control for non-specific binding.\nThe inventors used biotin-HYD1 as bait to pulldown binding complexes contained within membrane extracts of H929 MM cells. The pull down assay was directly coupled with an unbiased Mass-Spec analysis to identify HYD1 binding partners. […] NeutrAvidin beads were used to reduce non-specific binding. […] The inventors next determined whether α4 integrin could be detected by western blot analysis. […] To determine whether […] was indeed a direct binding partner of […] the inventors used recombinant CD44 and an ELISA as a readout of binding. […]\nThe inventors performed a total membrane binding assay with biotin conjugated HYD1 and NeutrAvidin beads on NCI-H929 and U266 MM cells. Samples were then loaded on an SDS-PAGE gel, trypsin digested, and analyzed by Liquid Chromatography-Mass Spectrometry/Mass Spectrometry (LC-MS/MS). […] For more quantitative binding affinity analysis we produced the human globular ectodomain of CD44 comprising of amino acids 20-178. […]"}, "[2]": {"system": "H929 myeloma cells", "type": "cell-based, human", "conditions": "H929 cells", "experimental": "H929 cells were treated for 24 hours with varying concentrations of peptide. Cell death was measured by Topro-3 staining and FACS analysis. The IC50 values were obtained from linear regression analysis and an average value was obtained from 3 independent experiments.\nTable 4 legend: Structure activity relationship in H929 myeloma cells of cyclic INTEGRIN INTERACTION INHIBITORS derivatives. The minimal bioactive core sequence of INTEGRIN INTERACTION INHIBITORS WSVVM (SEQ ID NO:33) was cyclized using 2 novel reduced amide bond beta turn promoters and KLKLK (SEQ ID NO:34) as the non-recognition sequence. H929 cells were treated with varying concentrations of the indicated peptide for 24 h. Cell viability was determined using Topro-3 staining and FACS analysis after drug treatment. IC50 values were generated from linear regressions generated from the dose response curves (n=mean of 3 independent experiments).\nA colony forming assay was used to compare induced cell death in H929 multiple myeloma cells. Cells were treated with integrin interaction inhibitors, shown in FIG. 5 and Table 4, and cell death was measured following 24 hour peptide treatment by TOPRO-3 staining and FACS analysis."}, "[3]": {"system": "CD44 and α4 integrin in membrane extracts", "experiment": "Pull-down of membrane extract with biotin-conjugated peptide on NeutrAvidin beads, western blot / LC-MS/MS", "type": "binding", "conditions": "H929 cells, 30 μg membrane extract, western blot pan-CD44 antibody", "experimental": "FIG. 39. […] Thirty micrograms of membrane extract was incubated with either biotin or biotin-HYD1 bound NeutrAvidin beads. The first lane is 30 μg of membrane extract only. CD44 was detected by western blot analysis using a pan-CD44 antibody.\nFIGS. 40A-40B. […] Biotin-HYD1 or biotin was immobilized to NeutraAvidin beads prior to incubation with 150 μg of membrane extract. The blot was initially probed for α4 integrin and subsequently stripped and re-probed with CD44 antibody.\nFIG. 65. […] Total cell membranes were isolated from U937 or HL-60 cells. Membrane lysate (150 μg) was incubated with 500 μg of biotin or biotin-MTI-101 bound to NeutrAvidin beads. […]\nThe inventors used biotin-HYD1 as bait to pulldown binding complexes contained within membrane extracts of H929 MM cells. […] The inventors next determined whether α4 integrin could be detected by western blot analysis. […] To determine whether […] was indeed a direct binding partner of […] the inventors used recombinant CD44 and an ELISA as a readout of binding. […]\nWe performed a total membrane binding assay with biotin conjugated HYD1 and NeutrAvidin beads on NCI-H929 and U266 MM cells. Samples were then loaded on an SDS-PAGE gel and analyzed by LC-MS/MS. The adhesion receptor CD44 was determined to be among the adhesion receptors that had the most peptide match hits and was confirmed as a valid hit via Western Blot analysis. […]"}},
  "note": "Where a SMILES comes first, the peptide text is derived from it. [ ]: non-standard residue; d: D form. The star is where a group is joined. Biotin = O=C1N[C@H]2[C@H](CS[C@H]2CCCCC(=O)*)N1",
  "data": [
    {"smiles": "CC[C@@H](C)[C@@H](NC(=O)[C@@H](CCCCN)NC(=O)CCCC[C@@H]1SC[C@@H]2NC(=O)N[C@@H]21)C(=O)N[C@H](CCCCN)C(=O)N[C@H](CCSC)C(=O)N[C@@H](C(=O)N[C@@H](C(=O)N[C@H](CO)C(=O)N[C@H](Cc1c[nH]c2ccccc12)C(=O)N[C@H](CCCCN)C(=O)NCC(=O)O)[C@H](C)CC)C(C)C", "note": "[biotin-HYD1] (Biotin-[dK][dI][dK][dM][dV][dI][dS][dW][dK]G-OH; N-terminus and C-terminus assumed)", "values": [
      {"measurement": "binding to recombinant CD44 in ELISA", "setting": "[1]", "result": "binds recombinant CD44 in a direct ELISA"},
      {"measurement": "binding to recombinant CD44 in ELISA", "setting": "[1]; listed as biotin conjugated HYD1", "result": "CD44 bound to biotin conjugated HYD1 in a concentration dependent manner"},
      {"measurement": "IC50 of biotinylated peptide relative to HYD1", "setting": "[2]", "result": "slightly decreased"},
      {"measurement": "pull-down of binding partners from H929 membrane extract", "setting": "[3]", "result": "interacts with CD44 in H929 cells"}
    ]}
  ]
}
